Test results as given in patent US12252701B2, “Chimeric antigen receptor T cell therapy” (KITE PHARMA, INC., priority 2020, dated 2025).
Where two headings read alike, the source gives them in different places.

Key:
CD19 CAR T cells = assay: CAR T cell cytokine production (Luminex) under CD19 K562, KIP-1 or CD2/3/28 stimulation; conditions: 72 h
[1] = Clinical pharmacokinetic data converted to in vitro concentrations; conditions: human, in vivo
From the text: Given the different potencies of the JAK inhibitors and different pharmacokinetic properties for each drug, it was sought to test each drug at a relevant range of physiological concentrations based on clinical dosing and reported pharmacokinetic data from repeat dose studies. Reported Cmax values in patient sera were converted to in vitro concentrations and adjusted for reported plasma protein binding.

[2] = test system: phospho-STAT panel (pSTAT3/4/5), CD3+ T cells; assay: phospho-STAT induction by IL-6, MesoScale Discovery phospho-STAT panel; type: cell-based, human; conditions: CD3+ T cells; for pSTAT3: MSD signal (No stim. 689, IL-6 alone 33641); for pSTAT4: MSD signal (No stim. 1964, IL-6 alone 15405); for pSTAT5: MSD signal (No stim. 9210, IL-6 alone 17743)
Description: CD19 CAR-T, PBMC or CD3+ T cells (AllCells) were thawed and rested 0/N at 37° C. in R10 media. Cells were seeded at 700,000 cells/well and were either untreated or treated with 100 ng/ml IL6+drug at indicated concentrations for 20 minutes at 37° C. The cells were then washed with cold PBS and followed by 60 μl of Tris lysis buffer (provided by MSD) for 30 minutes on ice. Lysates were collected by spin down for 10 minutes at >10,000 rpm. 25 μl/well per condition was used for MesoScale Discovery (MSD) assay using the phospho-STAT panel (pSTAT3/4/5) from MesoScale Discovery following the manufacturer's protocol. pSTAT panel plates were blocked with 150 μl of blocker A solution for 1 hr at RT with shaking. Plates were washed three times with 1× Tris wash buffer. 25 μl of lysate samples were added per well, incubated 2 hr at room temperature or at 4° C. overnight. Plates were washed 3 times with 1× tris wash buffer and then 25 μl of detection antibody solution were added to each well and incubated for 1 hr at room temperature with shaking. Plates were washed and 1× read buffer added to each well and plates were read on the MSD instrument.

[3] = test system: NALM6.GFP.LUC.CD19 target cells
Description: The percent cytotoxicity to NALM6.GFP.LUC.CD19 target cells was measured by luciferase detection at each round.
In one embodiment, a serial killing assay is a combination of cell killing and how long it takes for CAR T cells to get exhausted under repeated stimulation. In one embodiment, a serial killing assay is a surrogate measure for CAR T cell persistence in vivo.

in vitro = conditions: human, CAR-T cells
[4] = plasma protein binding, reported; cited from earlier work
CAR-T cells = assay: CAR-T cell expansion assay (KIP-1 or CD3/CD28 stimulation); conditions: CD3/CD28
[5] = 100 ng/ml IL-6 + drug 10 uM, 20 min

## C[C@H]1C[C@@H]2[C@H]([C@@H](O)C[C@@]3(C)[C@H]2CC[C@]3(O)C(=O)CO)[C@@]2(C)C=CC(=O)C=C12 [Methlyprednisolone]
CD19 CAR T cells; CD3/CD28 stimulation
  Suppression of cytokine production, IL-6 (IC50): Suppress
  Suppression of cytokine production, MCP-1, % inh.: >80% inh.
  Suppression of cytokine production, TNFa, % inh.: >50% inh.
CD19 CAR T cells; K562-CD19 stimulation
  Suppression of cytokine production, IL-6 (IC50): Suppress
  Suppression of cytokine production, MCP-1 (IC50): Suppress
  Suppression of cytokine production, MIG (IC50): Suppress
  Suppression of cytokine production, TNFa (IC50): Suppress
CD19 CAR T cells; KIP-1 stimulation
  Suppression of cytokine production, IL-6, % inh.: 66% inh.
  Suppression of cytokine production, IL-10, % inh.: 50% inh.
  Suppression of cytokine production, MCP-1, % inh.: 66% inh.
  Suppression of cytokine production, MIG, % inh.: 50% inh.
  Suppression of cytokine production, TNFa, % inh.: 75% inh.
CD19 CAR T cells; read-out: Suppression of cytokine production, GMCSF (IC50), CD3/CD28 stimulation
  IC50: > 10 µM
CD19 CAR T cells; read-out: Suppression of cytokine production, GMCSF (IC50), KIP-1 stimulation
  IC50: > 10 µM
CD19 CAR T cells; read-out: Suppression of cytokine production, GzB (IC50), CD3/CD28 stimulation
  IC50: > 10 µM
CD19 CAR T cells; read-out: Suppression of cytokine production, GzB (IC50), KIP-1 stimulation
  IC50: > 10 µM
CD19 CAR T cells; read-out: Suppression of cytokine production, IFNg (IC50), CD3/CD28 stimulation
  IC50: > 10 µM
CD19 CAR T cells; read-out: Suppression of cytokine production, IFNg (IC50), KIP-1 stimulation
  IC50: > 10 µM
CD19 CAR T cells; read-out: Suppression of cytokine production, IL-2Ra (IC50), CD3/CD28 stimulation
  IC50: > 10 µM
CD19 CAR T cells; read-out: Suppression of cytokine production, IL-2Ra (IC50), K562-CD19 stimulation
  IC50: > 10 µM
CD19 CAR T cells; read-out: Suppression of cytokine production, IL-2Ra (IC50), KIP-1 stimulation
  IC50: > 10 µM
CD19 CAR T cells; read-out: Suppression of cytokine production, IL-8 (IC50), CD3/CD28 stimulation
  IC50: > 10 µM
CD19 CAR T cells; read-out: Suppression of cytokine production, IL-8 (IC50), K562-CD19 stimulation
  IC50: > 10 µM
CD19 CAR T cells; read-out: Suppression of cytokine production, IL-8 (IC50), KIP-1 stimulation
  IC50: > 10 µM
CD19 CAR T cells; read-out: Suppression of cytokine production, IL-10 (IC50), CD3/CD28 stimulation
  IC50: > 10 µM
CD19 CAR T cells; read-out: Suppression of cytokine production, MIG (IC50), CD3/CD28 stimulation
  IC50: > 10 µM
CD19 CAR T cells; read-out: Suppression of cytokine production, MIP-1a (IC50), CD3/CD28 stimulation
  IC50: > 10 µM
CD19 CAR T cells; read-out: Suppression of cytokine production, MIP-1a (IC50), KIP-1 stimulation
  IC50: > 10 µM
CD19 CAR T cells; read-out: Suppression of cytokine production, MIP-1b (IC50), CD3/CD28 stimulation
  IC50: > 10 µM
CD19 CAR T cells; read-out: Suppression of cytokine production, MIP-1b (IC50), KIP-1 stimulation
  IC50: > 10 µM
CD19 CAR T cells; read-out: Suppression of cytokine production, Perforin (IC50), CD3/CD28 stimulation
  IC50: > 10 µM
CD19 CAR T cells; read-out: Suppression of cytokine production, Perforin (IC50), KIP-1 stimulation
  IC50: > 10 µM

## C[C@H]1C[C@@H]2[C@H]([C@@H](O)C[C@@]3(C)[C@H]2CC[C@]3(O)C(=O)CO)[C@@]2(C)C=CC(=O)C=C12 [methylprednisolone]
[1]
  PPB adj. in Vitro concentration (free): 670 nM
  PPB adj. in Vitro concentration (total): 2.56 µM
  clinically relevant dose level (in vitro concentration): ~2.5 µM
[1]; 100 mg
  Cmax: 960 ng/mL
  Cmax (ng/ml) (free): 251 ng/mL
[2]; [5]
  pSTAT3: 25867
  pSTAT4: 11225
  pSTAT5: 14781
[2]; IL-6 + drug 0.125 uM
  pSTAT3: 30520
  pSTAT4: 14740
  pSTAT5: 18739
[2]; IL-6 + drug 0.5 uM
  pSTAT3: 30901
  pSTAT4: 14903
  pSTAT5: 20208
[2]; IL-6 + drug 1 uM
  pSTAT3: 28287
  pSTAT4: 14989
  pSTAT5: 18668
[2]; IL-6 + drug 5 uM
  pSTAT3: 25433
  pSTAT4: 11282
  pSTAT5: 15142
[3]
  impact on CAR-T serial killing (percent cytotoxicity): differential impacts
In vitro
  viability at 0 day, 1000 nM: 75%
  viability at 0 day, 5000 nM: 75%
  viability at 4 day, 1000 nM: 58.1%
  viability at 4 day, 5000 nM: 49.4%
  viability at 8 day, 1000 nM: 69.1%
  viability at 8 day, 5000 nM: 66%
  viability at 12 day, 1000 nM: 76.3%
  viability at 12 day, 5000 nM: 71.9%
[4]
  Protein binding: 78%
CAR-T cells; dose 1000 nM, day 4
  % viability: 44.3%
CAR-T cells; dose 1000 nM, day 12
  % viability: 62.6%
CAR-T cells; dose 5000 nM, day 4
  % viability: 46.6%
CAR-T cells; dose 5000 nM, day 8
  % viability: 59.1%
CAR-T cells; dose 5000 nM, day 12
  % viability: 58.9%
